Measurements: US6358885B1, “Substituted phenylheterocyclic herbicides” (Mississippi State University, priority 1992, dated 2002)

How the values were obtained:
corn = assay: Test B preemergence/postemergence greenhouse plant response rating 0 to 10; assay type: in vivo, Zea mays; settings: 0 to 10 scale
In short: (§1)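 Postemergence treatment of plants two to eighteen cm tall ran alongside preemergence treatment of planted seed, each using compound in a non-phytotoxic solvent.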

crabgrass = assay: as above; assay type: in vivo, Digitaria spp.; settings: 0 to 10 scale
In short: as §1

morningglory [1] = assay: as above; assay type: in vivo, Ipomoea hederacea; settings: 0 to 10 scale
In short: as §1

rape = assay: as above; assay type: in vivo, Brassica napus; settings: 0 to 10 scale
In short: as §1

sorghum = assay: as above; assay type: in vivo, Sorghum bicolor; settings: 0 to 10 scale
In short: as §1

soybean [2] = assay: as above; assay type: in vivo, Glycine max; settings: 0 to 10 scale
In short: as §1

wheat = assay: as above; assay type: in vivo, Triticum aestivum; settings: 0 to 10 scale
In short: as §1

wild oat = assay: as above; assay type: in vivo, Avena fatua; settings: 0 to 10 scale
In short: as §1

purple nutsedge = assay: as above; assay type: in vivo, Cyperus rotundus; settings: 0 to 10 scale
In short: as §1

barley = assay: Test C preemergence/postemergence greenhouse plant response rating 0 to 100; assay type: in vivo, Hordeum vulgare; settings: POSTEMERGENCE; for Plant response rating Barley Igri: 0 to 100 scale
From the text: (§2) The compounds evaluated in this test were formulated in a non-phytoxic solvent and applied to the soil surface before plant seedlings emerged (preemergence application), to water that covered the soil surface (flood application), and to plants that were in the one-to-four leaf stage (postemergence application). A sandy loam soil was used for the preemergence and postemergence tests, while a silt loam soil was used in the flood test. Water depth was approximately 2.5 cm for the flood test and was maintained at this level for the duration of the test. Plant species in the preemergence and postemergence tests consisted of barley (Hordeum vulgare), bedstraw (Galium aparine), blackgrass (Alopecurus myosuroides), chickweed (Stellaria media), corn (Zea mays), cotton (Gossypium hirsutum), crabgrass (Digitaria sanguinalis), downy brome (Bromus tectorum), giant foxtail (Setaria faberii), lambsquarters (Chenopodium album), morningglory (Ipomoea hederacea), pigweed ([…]), rape (Brassica napus), ryegrass (Lolium multiflorum), sorghum (Sorghum bicolor), soybean (Glycine max), speedwell (Veronica persica), sugar beet (Beta vulgaris), velvetleaf (Abutilon theophrasti), wheat (Triticum aestivum), wild buckwheat (Polygonum convolvulus), and wild oat (Avena fatua). All plant species were planted one day before application of the compound for the preemergence portion-of this test. Plantings of these species were adjusted to produce plants of appropriate size for the post-emergence portion of the test. […] All plant species were grown using normal greenhouse practices. Visual evaluations of injury expressed on treated plants, when compared to untreated controls, were recorded approximately fourteen to twenty one days after application of the test compound. […] A dash (-) response means no test result.

bedstraw = assay: as above; assay type: in vivo, Galium aparine; settings: POSTEMERGENCE; for Plant response rating, Bedstraw: 0 to 100 scale
From the text: as §2

chickweed = assay: as above; assay type: in vivo, Stellaria media; settings: POSTEMERGENCE; for Plant response rating, Chickweed: 0 to 100 scale
From the text: as §2

downy brome = assay: as above; assay type: in vivo, Bromus tectorum; settings: POSTEMERGENCE; for Plant response rating Downy Brome: 0 to 100 scale
From the text: as §2

morningglory [3] = assay: as above; assay type: in vivo, Ipomoea hederacea; settings: POSTEMERGENCE; for Plant response rating, Morningglory: 0 to 100 scale
From the text: as §2

soybean [4] = assay: as above; assay type: in vivo, Glycine max; settings: POSTEMERGENCE; for Plant response rating, Soybean: 0 to 100 scale
From the text: as §2

wild buckwheat = assay: as above; assay type: in vivo, Polygonum convolvulus; settings: POSTEMERGENCE; for Plant response rating, Wild buckwheat: 0 to 100 scale
From the text: as §2

umbrella sedge = assay: Test C flood test plant response rating 0 to 100; assay type: in vivo, Cyperus difformis; settings: for Plant response rating (0 to 100), Umbrella sedge: under POSTEMERGENCE head (flood test species); for Plant response rating Umbrella sedge: flood test species listed under POSTEMERGENCE, 0 to 100 scale
From the text: as §2

C#CC(C)Oc1cc(-c2nn3c(c2Cl)CCCC3)c(F)cc1Cl (stereo not shown) [Compound 36]
Plant response rating, Corn (corn; POSTEMERGENCE, Rate 50 g/ha): 5
Plant response rating, Corn (corn; POSTEMERGENCE, Rate 200 g/ha): 6
Plant response rating, Corn (corn; PREEMERGENCE, Rate 50 g/ha): 0
Plant response rating, Corn (corn; Rate 200 g/ha, PREEMERGENCE): 4
Plant response rating, Crabgrass (crabgrass; POSTEMERGENCE, Rate 50 g/ha): 5
Plant response rating, Crabgrass (crabgrass; POSTEMERGENCE, Rate 200 g/ha): 7
Plant response rating, Crabgrass (crabgrass; PREEMERGENCE, Rate 50 g/ha): 5
Plant response rating, Crabgrass (crabgrass; Rate 200 g/ha, PREEMERGENCE): 9
Plant response rating, Morningglory (morningglory [1]; POSTEMERGENCE, Rate 50 g/ha): 8
Plant response rating, Morningglory (morningglory [1]; PREEMERGENCE, Rate 50 g/ha): 0
Plant response rating, Morningglory (morningglory [1]; Rate 200 g/ha, POSTEMERGENCE): 10
Plant response rating, Morningglory (morningglory [1]; Rate 200 g/ha, PREEMERGENCE): 2
Plant response rating, Rape (rape; POSTEMERGENCE, Rate 50 g/ha): 10
Plant response rating, Rape (rape; PREEMERGENCE, Rate 50 g/ha): 5
Plant response rating, Rape (rape; Rate 200 g/ha, POSTEMERGENCE): 10
Plant response rating, Rape (rape; Rate 200 g/ha, PREEMERGENCE): 8
Plant response rating, Sorghum (sorghum; POSTEMERGENCE, Rate 50 g/ha): 5
Plant response rating, Sorghum (sorghum; PREEMERGENCE, Rate 50 g/ha): 0
Plant response rating, Sorghum (sorghum; Rate 200 g/ha, POSTEMERGENCE): 6
Plant response rating, Sorghum (sorghum; Rate 200 g/ha, PREEMERGENCE): 1
Plant response rating, Soybean (soybean [2]; POSTEMERGENCE, Rate 50 g/ha): 9
Plant response rating, Soybean (soybean [2]; PREEMERGENCE, Rate 50 g/ha): 0
Plant response rating, Soybean (soybean [2]; Rate 200 g/ha, POSTEMERGENCE): 9
Plant response rating, Soybean (soybean [2]; Rate 200 g/ha, PREEMERGENCE): 2
Plant response rating, Wheat (wheat; POSTEMERGENCE, Rate 50 g/ha): 5
Plant response rating, Wheat (wheat; PREEMERGENCE, Rate 50 g/ha): 5
Plant response rating, Wheat (wheat; Rate 200 g/ha, POSTEMERGENCE): 6
Plant response rating, Wheat (wheat; Rate 200 g/ha, PREEMERGENCE): 5
Plant response rating, Wild oat (wild oat; POSTEMERGENCE, Rate 50 g/ha): 5
Plant response rating, Wild oat (wild oat; PREEMERGENCE, Rate 50 g/ha): 3
Plant response rating, Wild oat (wild oat; Rate 200 g/ha, POSTEMERGENCE): 6
Plant response rating, Nutsedge (purple nutsedge; POSTEMERGENCE, Rate 50 g/ha): 4
Plant response rating, Nutsedge (purple nutsedge; PREEMERGENCE, Rate 50 g/ha): 0
Plant response rating, Nutsedge (purple nutsedge; Rate 200 g/ha, POSTEMERGENCE): 5
Plant response rating, Nutsedge (purple nutsedge; Rate 200 g/ha, PREEMERGENCE): 2
Plant response rating Barley Igri (barley; 62 g/ha): 30
Plant response rating Barley Igri (barley; 125 g/ha): 50
Plant response rating (0 to 100), Barley Igri (barley; Rate 16 g/ha): 20
Plant response rating (0 to 100), Barley Igri (barley; Rate 31 g/ha): 30
Plant response rating, Bedstraw (bedstraw; 62 g/ha): 100
Plant response rating, Bedstraw (bedstraw; 125 g/ha): 100
Plant response rating (0 to 100), Bedstraw (bedstraw; Rate 16 g/ha): 90
Plant response rating (0 to 100), Bedstraw (bedstraw; Rate 31 g/ha): 100
Plant response rating, Chickweed (chickweed; 62 g/ha): 80
Plant response rating, Chickweed (chickweed; 125 g/ha): 100
Plant response rating (0 to 100), Chickweed (chickweed; Rate 16 g/ha): 70
Plant response rating (0 to 100), Chickweed (chickweed; Rate 31 g/ha): 80
Plant response rating Downy Brome (downy brome; 62 g/ha): 40
Plant response rating Downy Brome (downy brome; 125 g/ha): 50
Plant response rating (0 to 100), Downy Brome (downy brome; Rate 16 g/ha): 20
Plant response rating (0 to 100), Downy Brome (downy brome; Rate 31 g/ha): 30
Plant response rating, Morningglory (morningglory [3]; 62 g/ha): 100
Plant response rating, Morningglory (morningglory [3]; 125 g/ha): 100
Plant response rating (0 to 100), Morningglory (morningglory [3]; Rate 16 g/ha): 80
Plant response rating (0 to 100), Morningglory (morningglory [3]; Rate 31 g/ha): 80
Plant response rating, Soybean (soybean [4]; 62 g/ha): 80
Plant response rating, Soybean (soybean [4]; 125 g/ha): 100
Plant response rating (0 to 100), Soybean (soybean [4]; Rate 16 g/ha): 50
Plant response rating (0 to 100), Soybean (soybean [4]; Rate 31 g/ha): 50
Plant response rating, Wild buckwheat (wild buckwheat; 62 g/ha): 100
Plant response rating, Wild buckwheat (wild buckwheat; 125 g/ha): 100
Plant response rating (0 to 100), Wild buckwheat (wild buckwheat; Rate 16 g/ha): 70
Plant response rating (0 to 100), Wild buckwheat (wild buckwheat; Rate 31 g/ha): 70
Plant response rating (0 to 100), Umbrella sedge (umbrella sedge; Rate 16 g/ha): 0
Plant response rating (0 to 100), Umbrella sedge (umbrella sedge; Rate 31 g/ha): 20
Plant response rating Umbrella sedge (umbrella sedge; 62 g/ha): 70
Plant response rating Umbrella sedge (umbrella sedge; 125 g/ha): 80
